The source of these data is ChEMBL document CHEMBL1152157, “Total synthesis and biological evaluation of potent analogues of dictyostatin: modification of the C2-C6 dienoate region” (Bioorg Med Chem Lett, 2008).

Active and inactive are the calls of the source. The calls are words filed in the database; no cut-off is given here.

Assay type in all cases: functional, cell-based
In experiment [1] the test system is NCI/ADR-RES. Put plainly: Cytotoxicity against taxol-resistant human NCI/ADR-RES cells after 72 hrs by MTT assay.
The subject of experiment [2] is PANC-1. Briefly: Cell cycle arrest in human PANC1 cells by accumulation in G2/M phase.
Experiment [3] has as its system PANC-1. Briefly: Induction of microtubule stabilization in human PANC1 cells assessed as formation of dense intracellular microtubule bundles.
Experiment [4] has as its system PANC-1. Put plainly: Cytotoxicity against taxol-sensitive human PANC1 cells after 72 hrs by MTT assay. The settings on record: PANC-1, 72 h. For orientation: Formazan colour is commonly taken as a measure of viable cells.
Experiment [5] relates to ASPC1. Briefly: Cytotoxicity against taxol-sensitive human AsPC1 cells after 72 hrs by MTT assay. The settings on record: ASPC1, 72 h.
The subject of experiment [6] is DLD-1. Put plainly: Cytotoxicity against taxol-sensitive human DLD1 cells after 72 hrs by MTT assay. The settings on record: DLD-1, 72 h.

As for `C=C/C=C\[C@H](C)[C@@H]1OC(=O)CCCC[C@@H](C)[C@@H](O)C[C@H](O)/C=C\[C@H](C)[C@H](O)[C@@H](C)C[C@@H](C)CC[C@@H](O)[C@@H]1C`, the IC50 (usually the point on the concentration scale where inhibition reaches its midpoint) amounted to 130 nM in experiment [1], 64 nM in experiment [4], 120 nM in experiment [5] and 55 nM in experiment [6]. Also, the outcome in experiment [2] and in experiment [3] was Active.

In experiment [1], `C=C/C=C\[C@H](C)[C@H](OC(N)=O)[C@@H](C)[C@H](O)[C@@H](C)C/C(C)=C\[C@H](C)[C@@H](O)[C@@H](C)/C=C\[C@@H](O)C[C@@H]1OC(=O)[C@H](C)[C@@H](O)[C@H]1C` [DISERMOLIDE] came in with an IC50 of 160 nM.

On to `C=C/C=C\[C@H](C)[C@@H]1OC(=O)/C=C\C=C\C[C@@H](O)C[C@H](O)/C=C\[C@H](C)[C@H](O)[C@@H](C)C[C@@H](C)CC[C@@H](O)[C@@H]1C`, for which the IC50 in experiment [1] was 43 nM; in experiment [4], 17 nM; in experiment [5] it was 56 nM; in experiment [6], 8.1 nM. Further, the outcome in experiment [2] and in experiment [3] was Active.

Regarding `C=C/C=C\[C@H](C)[C@@H]1OC(=O)/C=C\C=C\[C@@H](C)[C@@H](O)C[C@H](O)/C=C\[C@H](C)[C@H](O)[C@@H](C)C[C@@H](C)CC[C@@H](O)[C@@H]1C` [DICTYOSTATIN], the 50% inhibitory concentration (IC50) in experiment [1] was determined as 6.6 nM; in experiment [4], 4.2 nM; in experiment [5], 6.2 nM; in experiment [6], 2.2 nM.

With `CC(=O)O[C@H]1C(=O)[C@@]2(C)[C@H]([C@H](OC(=O)c3ccccc3)[C@]3(O)C[C@H](OC(=O)[C@H](O)[C@@H](NC(=O)c4ccccc4)c4ccccc4)C(C)=C1C3(C)C)[C@]1(OC(C)=O)CO[C@@H]1C[C@@H]2O` [PACLITAXEL], the IC50 was 1300 nM in experiment [1], 9.9 nM in experiment [4], 89 nM in experiment [5] and 22 nM in experiment [6].

Regarding `C=C/C=C\[C@H](C)[C@@H]1OC(=O)CC/C=C/[C@@H](C)[C@@H](O)C[C@H](O)/C=C\[C@H](C)[C@H](O)[C@@H](C)C[C@@H](C)CC[C@@H](O)[C@@H]1C`, the IC50 in experiment [1] stood at 66 nM; in experiment [4], 42 nM; in experiment [5], 94 nM; in experiment [6], 22 nM. The outcome in experiment [2] and in experiment [3] was Active.
